Legend:
Format in all cases: biochemical
SGK2 = target: T1, SGK2 (Homo sapiens, UniProt Q9HBY8); experiment: Off-target kinase panel, ZLYTE: SGK2; settings: read-out: Estimated IC50 (uM) SGK2
T1 sequence (Q9HBY8 1-367): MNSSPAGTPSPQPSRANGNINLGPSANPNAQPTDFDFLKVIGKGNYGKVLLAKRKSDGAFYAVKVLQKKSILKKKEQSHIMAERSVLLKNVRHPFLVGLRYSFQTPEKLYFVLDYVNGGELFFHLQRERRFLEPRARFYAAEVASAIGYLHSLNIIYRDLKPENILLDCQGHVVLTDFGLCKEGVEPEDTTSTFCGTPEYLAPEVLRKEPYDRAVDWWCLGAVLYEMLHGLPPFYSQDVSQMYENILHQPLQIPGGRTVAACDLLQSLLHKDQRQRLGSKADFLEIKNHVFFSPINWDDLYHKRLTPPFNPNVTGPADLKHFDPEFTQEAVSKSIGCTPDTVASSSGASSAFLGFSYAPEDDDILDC
Source text: (§1) The activity data was obtained in a panel of 265 and 264 for compounds 1-1 and CC-1, respectively, using the ZLYTE and ADAPTA assay methods indicated in the table below.
(§2) The ZLYTE biochemical assay employs a fluorescence-based, coupled-enzyme format and is based on the differential sensitivity of phosphorylated and non-phosphorylated peptides to proteolytic cleavage. The peptide substrate is labeled with two fluorophores—one at each end—that make up a Fluorescence Resonance Energy Transfer (FRET) pair.
(§3) In the primary reaction, the kinase transfers the gamma-phosphate of ATP to a single tyrosine, serine or threonine residue in a synthetic FRET-peptide. In the secondary reaction, a site-specific protease recognizes and cleaves non-phosphorylated FRET-peptides. Phosphorylation of FRET-peptides suppresses cleavage by the Development Reagent. […] A ratiometric method, which calculates the ratio (the Emission Ratio) of donor emission to acceptor emission after excitation of the donor fluorophore at 400 nm, is used to quantitate reaction progress, as shown in the equation below. […]
(§4) Both cleaved and uncleaved FRET-peptides contribute to the fluorescence signals and therefore to the Emission Ratio. The extent of phosphorylation of the FRET-peptide can be calculated from the Emission Ratio. […]
(§5) 10. Read on fluorescence plate reader and analyze the data.

CLK2 = CLK2 (Homo sapiens, UniProt P49760); experiment: Off-target kinase panel, ZLYTE: CLK2; settings: read-out: Estimated IC50 (uM) CLK2
Chain of CLK2 (P49760 whole entry): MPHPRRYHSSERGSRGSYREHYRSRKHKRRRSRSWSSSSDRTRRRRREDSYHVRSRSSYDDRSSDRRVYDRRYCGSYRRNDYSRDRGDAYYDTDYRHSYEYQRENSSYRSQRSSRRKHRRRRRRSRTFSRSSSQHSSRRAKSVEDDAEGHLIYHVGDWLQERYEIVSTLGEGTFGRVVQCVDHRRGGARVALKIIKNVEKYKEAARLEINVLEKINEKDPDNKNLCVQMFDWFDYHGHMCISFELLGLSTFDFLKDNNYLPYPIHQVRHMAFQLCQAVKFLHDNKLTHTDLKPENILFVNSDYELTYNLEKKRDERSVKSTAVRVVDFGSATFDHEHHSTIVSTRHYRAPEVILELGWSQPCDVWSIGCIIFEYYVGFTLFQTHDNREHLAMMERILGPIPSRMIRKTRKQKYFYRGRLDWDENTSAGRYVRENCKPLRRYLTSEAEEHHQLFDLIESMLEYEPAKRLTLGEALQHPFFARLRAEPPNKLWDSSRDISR
Source text: as §1, §2, §3, §4, §5

CDK5/P25 = CDK5/P25 (Homo sapiens, UniProt Q00535); experiment: Off-target kinase panel, ZLYTE: CDK5/P25; settings: read-out: Estimated IC50 (uM) CDK5/P25
Chain of CDK5/P25 (Q00535 whole entry): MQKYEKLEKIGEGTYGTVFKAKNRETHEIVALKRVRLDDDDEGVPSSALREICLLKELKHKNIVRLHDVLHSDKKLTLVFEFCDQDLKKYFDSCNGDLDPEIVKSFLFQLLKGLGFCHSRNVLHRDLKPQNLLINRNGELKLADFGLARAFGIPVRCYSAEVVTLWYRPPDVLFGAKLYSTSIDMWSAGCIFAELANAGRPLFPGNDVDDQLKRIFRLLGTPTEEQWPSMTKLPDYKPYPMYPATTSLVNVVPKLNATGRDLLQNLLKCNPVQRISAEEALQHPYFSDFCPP
Chain of CDK5/P25 (Q15078 99-307 partner limits assumed): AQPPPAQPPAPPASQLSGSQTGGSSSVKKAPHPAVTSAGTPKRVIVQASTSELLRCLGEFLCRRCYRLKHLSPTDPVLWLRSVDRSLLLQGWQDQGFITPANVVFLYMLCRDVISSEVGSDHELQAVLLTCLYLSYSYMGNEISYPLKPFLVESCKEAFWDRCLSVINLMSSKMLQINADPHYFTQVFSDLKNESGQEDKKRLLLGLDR
Source text: as §1, §2, §3, §4, §5

RPS6KB1 = RPS6KB1 (Homo sapiens, UniProt P23443); experiment: Off-target kinase panel, ZLYTE: RPS6KB1; settings: read-out: Estimated IC50 (uM) RPS6KB1
Chain of RPS6KB1 (P23443 whole entry): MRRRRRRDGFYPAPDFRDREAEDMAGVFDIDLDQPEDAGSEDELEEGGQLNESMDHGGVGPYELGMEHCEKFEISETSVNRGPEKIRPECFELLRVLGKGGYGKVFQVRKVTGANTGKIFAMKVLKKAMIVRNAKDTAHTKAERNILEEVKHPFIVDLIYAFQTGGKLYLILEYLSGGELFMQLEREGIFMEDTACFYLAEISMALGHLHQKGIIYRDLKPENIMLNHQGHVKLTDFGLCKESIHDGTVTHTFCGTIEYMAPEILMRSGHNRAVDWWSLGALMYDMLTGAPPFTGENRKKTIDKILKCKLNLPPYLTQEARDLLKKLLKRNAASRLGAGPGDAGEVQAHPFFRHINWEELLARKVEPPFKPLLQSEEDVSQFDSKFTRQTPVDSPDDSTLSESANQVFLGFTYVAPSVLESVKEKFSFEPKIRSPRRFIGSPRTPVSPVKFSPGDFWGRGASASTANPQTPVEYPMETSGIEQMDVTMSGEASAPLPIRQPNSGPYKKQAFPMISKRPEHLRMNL
Source text: as §1, §2, §3, §4, §5

TYK2 = TYK2 (Homo sapiens, UniProt P29597); experiment: Off-target kinase panel, ZLYTE: TYK2; settings: read-out: Estimated IC50 (uM) TYK2
Chain of TYK2 (P29597 whole entry): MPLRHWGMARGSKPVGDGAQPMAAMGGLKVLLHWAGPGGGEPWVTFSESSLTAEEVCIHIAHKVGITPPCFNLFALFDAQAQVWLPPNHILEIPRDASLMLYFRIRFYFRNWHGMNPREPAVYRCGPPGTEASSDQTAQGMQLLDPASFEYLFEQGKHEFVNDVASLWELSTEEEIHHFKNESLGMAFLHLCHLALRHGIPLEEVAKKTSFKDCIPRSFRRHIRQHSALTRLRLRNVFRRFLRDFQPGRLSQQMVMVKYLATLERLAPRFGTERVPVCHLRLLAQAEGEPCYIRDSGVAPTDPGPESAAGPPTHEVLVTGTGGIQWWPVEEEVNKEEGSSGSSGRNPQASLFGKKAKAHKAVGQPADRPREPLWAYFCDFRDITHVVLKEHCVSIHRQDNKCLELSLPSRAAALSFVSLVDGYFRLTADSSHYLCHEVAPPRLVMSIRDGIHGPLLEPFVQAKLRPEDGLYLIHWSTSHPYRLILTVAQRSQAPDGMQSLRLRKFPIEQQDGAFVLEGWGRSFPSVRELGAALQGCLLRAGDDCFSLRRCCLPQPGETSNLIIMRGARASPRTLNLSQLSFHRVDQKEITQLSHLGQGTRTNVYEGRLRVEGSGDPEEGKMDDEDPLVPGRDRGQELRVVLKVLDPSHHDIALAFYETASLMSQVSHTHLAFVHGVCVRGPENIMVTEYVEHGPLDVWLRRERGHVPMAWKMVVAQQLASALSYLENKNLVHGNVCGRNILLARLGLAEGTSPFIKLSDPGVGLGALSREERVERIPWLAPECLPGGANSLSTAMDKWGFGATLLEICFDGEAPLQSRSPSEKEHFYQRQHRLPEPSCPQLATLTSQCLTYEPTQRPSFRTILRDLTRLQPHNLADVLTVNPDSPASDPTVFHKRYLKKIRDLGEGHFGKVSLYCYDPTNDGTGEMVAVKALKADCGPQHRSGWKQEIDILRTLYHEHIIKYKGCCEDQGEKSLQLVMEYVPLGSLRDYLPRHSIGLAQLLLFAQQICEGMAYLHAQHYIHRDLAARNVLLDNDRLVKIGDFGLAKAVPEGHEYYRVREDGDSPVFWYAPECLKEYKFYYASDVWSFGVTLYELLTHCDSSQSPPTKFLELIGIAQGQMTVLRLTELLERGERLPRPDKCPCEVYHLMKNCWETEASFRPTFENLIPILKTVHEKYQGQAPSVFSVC
Source text: as §1, §2, §3, §4, §5

Row | IC50 (SGK2) [µM] | IC50 (CLK2) [µM] | IC50 (CDK5/P25) [µM] | IC50 (RPS6KB1) [µM] | IC50 (TYK2) [µM] | SMILES
1 | > 2 | 0.73 | > 2 | 1.9 | > 2 | C[C@@H]1CN(c2cc(Br)cc3[nH]ncc23)CC[C@]12NC(=O)NC2=O (single isomer, unassigned) [Compound 1-1]
2 | 1.3 | 0.35 | 1.2 | 1.7 | 2 | O=C1NC(=O)C2(CCN(c3cc(Cl)cc4[nH]ncc34)CC2)N1 [CC-1]

From US20220396577A1, “NOVEL SUBSTITUTED 1,3-8-TRIAZASPIRO[4,5] DECANE-2,4-DIONE COMPOUNDS AS INDOLEAMINE 2,3-DIOXYGENASE (IDO) AND/OR TRYPTOPHAN 2,3-DIOXYGENASE (TDO) INHIBITORS” (Merck Sharp & Dohme LLC, priority 2019, published 2022)
